From PMC6271906, “Sesquiterpenes from the Brazilian Red Alga Laurencia dendroidea J. Agardh” (Molecules, 2014)

Columns and labels:
[1] = tested on: Mycobacterium bovis BCG strain Moreau; experiment: microbe, parasite or virus in culture; type: cell-based; conditions: Mycobacterium tuberculosis variant bovis BCG, 168 h, read-out: IC50 M. bovis BCG
[2] = tested on: TNF-α production by LPS-activated RAW 264.7 macrophages; experiment: TNF-α production by LPS-stimulated RAW 264.7 macrophages (L929 fibroblast bioassay); type: cell-based, murine; conditions: Mus musculus, RAW264.7, 24 h incubation
Experimental: (§1) The murine peritoneal macrophage cell line RAW 264.7 was obtained from the American Type Culture Collection (ATCC, Rockville, MD, USA) and grown at 37 °C and 5% CO2 in DMEM F-12 that was supplemented with 10% FCS and gentamicin (50 µg/mL). RAW 264.7 cells (1 × 10^5 cells/well) were seeded in flat bottom 96-well tissue culture plates (Corning Inc., Corning, NY, USA) in the presence or absence of various concentrations of the samples (100, 20 and 4 µg/mL) and/or LPS (Escherichia coli 055:B5; Sigma-Aldrich). After a 24 h incubation period, culture supernatants were collected for NO and TNF-α assays. Nitrite, a stable NO metabolite, was determined by using the Griess test. As a positive control of inhibitory activity, intact, untreated macrophages were used. As a negative control, macrophages stimulated with 1 µg/mL LPS were used. […] TNF-α was measured by an L929 fibroblast bioassay. This assay system uses murine L929 cells sensitive to TNF-α. For this, murine fibroblast cell line L929 cells (ATCC) (2 × 10^5 cells/well) were seeded in flat bottom 96-well tissue culture plates (Corning Inc.) 24 h before of being inoculated with macrophage culture supernatant and actinomycin D (2 µg/mL) added. After 24 h of incubation with macrophage culture supernatant, L929 viability was assayed by MTT [3-(4,5-dimethylthiazol-2-yl)-2,5diphenyltetrazolium bromide] method. The cytokine levels were calculated by using a purified recombinant mouse cytokine to obtain a standard curve that correlates cellular viability and TNF-α concentration.

[3] = tested on: RAW 264.7 cells; experiment: Lactate dehydrogenase (LDH) cytotoxicity assay; type: cell-based, murine; conditions: for toxicity (LDH release), in words: RAW 264.7 cells, cell viability by LDH release
Experimental: (§2) LDH assay was used to evaluate the toxicity of the studied samples towards macrophage cultures. The release of LDH (cytoplasmic enzyme lactate dehydrogenase) from RAW 264.7 cells treated with samples was determined using 50 µL of cell culture supernatant collected 24 h after the treatment, as described in the previous section. The LDH release, which represents an indirect indication of cytotoxicity, was determined colorimetrically using a commercial kit (Doles Reagentes e Equipamentos para Laboratorios Ltda., Goiânia, Brazil). The specific release was calculated as a percentage of the controls: non-treated macrophages as the negative control (O.D. 0.249, cytotoxicity 1.99% ± 0.62%) and 1% Triton X-100 (Vetec Chem., Duque de Caxias, Brazil) detergent treated macrophages as the positive control (O.D. 1.278, cytotoxicity 99.95% ± 2.26%). Final concentrations of DMSO, used as the carrier solvent for the samples, were tested in parallel as a control. Cytotoxicity was shown as percentage of controls. Tests were performed in triplicate and the mean value and standard deviation were calculated.

[4] = Lactate dehydrogenase (LDH) cytotoxicity assay; type: cell-based, murine; conditions: mouse, RAW 264.7 macrophage cells; LDH release from RAW 264.7 cells, 24 h after treatment
Experimental: as §2

[5] = tested on: NO production by LPS-activated RAW 264.7 macrophages; experiment: NO production by LPS-stimulated RAW 264.7 macrophages (Griess test); type: cell-based, murine; conditions: Mus musculus, RAW264.7; for IC50: LPS-stimulated RAW 264.7 macrophages, 24 h incubation
Experimental: as §1

C=C1CC[C@@H](Br)C(C)(C)[C@]12CC[C@](C)(Br)[C@@H](Cl)C2 [Compound 4, obtusane]
IC50 [1]: 44.7 ± 4 µM | IC50 [2]: > 251 µM | toxicity (LDH release), in words [3]: only moderately toxic | IC50 at 24 h [4]: 197.2 ± 1 µM | IC50 [5]: 44.9 ± 3 µM

Triton X-100 [reference compound]
cytotoxicity (specific LDH release, percentage of controls) ([3]; 1% detergent, positive control, RAW 264.7 macrophages): 99.95% ± 2.26

[H]/N=C(/NC)NCCC[C@H](N)C(=O)O [L-NMMA, L-N-monomethyl-arginine, reference compound]
IC50 [5]: 71.3 ± 4.4 µM | inhibition at 20 µg/mL ([5]; positive control at 20 µg/mL): 59.2%

CC1CCC23C1CCC2(C)CC(C)C3(C)O (stereo not drawn) [Compound 5, (1S*,2S*,3S*,5S*,8S*,9S*)-2,3,5,9-tetramethyltricyclo[6.3.0.01.5]undecan-2-ol]
IC50 [1]: 205 ± 7.6 µM | IC50 [2]: 393.4 ± 0.4 µM | toxicity (LDH release), in words [3]: no toxicity whatsoever | IC50 at 24 h [4]: 416 ± 4.9 µM | IC50 [5]: 74.6 ± 5.8 µM

C=C1C[C@@H](O)CC(C)(C)[C@]12CCC(C)=C(Cl)C2 [Compound 3, Debromoelatol]
IC50 [1]: 82.4 ± 4.7 µM | IC50 [2]: 134 ± 7.4 µM | toxicity (LDH release), in words [3]: no toxicity whatsoever | IC50 at 24 h [4]: > 392 µM | IC50 [5]: 69.1 ± 4.7 µM

C=C1CC(O)C(Br)C(C)(C)C12CCC(C)(O)C(Cl)C2 (centres unmarked) [Compound 2]
IC50 [1]: 80.2 ± 4.3 µM | IC50 [2]: > 284 µM | toxicity (LDH release), in words [3]: no toxicity whatsoever | IC50 at 24 h [4]: > 284 µM | IC50 [5]: > 284 µM
